# Reference: patent publication US20090176714A1, “METHOD OF REDUCING THE EFFECTS OF ABeta AND COMPOSITIONS THEREFORE” (priority 2004, published 2009)
# Tests used:
# hippocampal slices = assay: TUNEL and Nissl staining of hippocampal slices; assay type: cell-based, mouse; settings: 25 μM or 50 μM Aβ
# Experimental: Hippocampal slice cryosections from 3 animals per treatment were stained with terminal deoxynucleotidyl transferase-mediated, dUTP nick end labeling (TUNEL). Cells with DNA fragmentation were determined by the terminal deoxynucleotidyl transferase incorporation of fluorescein isothiocyanate (FITC)-12-dUTP into DNA (In Situ Cell Death Detection kit, Roche Biochem, Indianapolis, Ind.). Other sections were stained with cresyl violet acetate, and the neurons with healthy nuclei as well as the neurons with condensed and clumped chromatin were counted within the neuronal fields.
# β-amyloid1-42 and reverse Aβ (Aβ42-1) were obtained from BACHEM (Torrance, Calif.). These polypeptides were dissolved in 0.1% NH3OH at 222 μM. For treatments, Aβ was aggregated at 50 μM in Neurobasal media with B-27 supplement and 1 mM glutamine at 37° C. for 24 hours. Then, the slice culture media was removed, and the slices were treated with 1 mL of 25 μM or 50 μM Aβ, reverse Aβ, or vehicle for 24 hours. Human TTR (Calbiochem) or IGF-2 (Peprotech, Rocky Hill, N.J.) was added to slices together with the Aβ treatment at final concentrations of 3 μM (TTR) or 500 nM (IGF-2). sAPPα was prepared as described previously (Mattson et al., Neuron, 10:243-254 (1993)).
# Unless otherwise stated, all sAPPα treatments were performed at 1 nM 48 hours prior to the addition of Aβ. […]
# tau [1] = assay: Tau phosphorylation (AT8, phospho-tau(Thr231) immunohistochemistry, immunoblot, electron microscopy) in hippocampal slices; assay type: cell-based, mouse
# Experimental: Mice were killed with CO2 and immediately perfused through the heart with phosphate buffered saline (PBS). The right hemispheres were fixed in 4% paraformaldehyde (PFA) overnight, sunk in 30% sucrose, and frozen in OCT embedding medium. Hippocampal slices were fixed in 4% PFA for 20 minutes, incubated in 30% sucrose overnight, and frozen in OCT embedding medium. Frozen sections with a width of 10 μm were taken through the hippocampus. Post-mortem human tissue was formalin fixed, cut at 10 μm, and boiled for 10 minutes in a 10 mM Tris buffer, […] for antigen retrieval. IGF-2 and TTR were detected with a 1:200 dilution of the polyclonal antibody against IGF-2 (F-20) or TTR (C-20; Santa Cruz Biotechnology, Santa Cruz, Calif.). Phospho-BAD (Ser112; Cell Signaling, Beverly, Mass.), and BAD (Stressgen, Victoria, British Columbia) were detected with a 1:250 dilution of the respective polyclonal antibody. Phosphorylated tau was detected with the monoclonal AT8 antibody (1:200; Research Diagnostics, Flanders, N.J.) and anti-phospho-tau(Thr231) (1:500; Calbiochem, San Diego, Calif.). As a control pre-immune rabbit or mouse IgG (Vector Laboratories, Burlingame, Calif.) or goat IgG (Santa Cruz) was used in place of the primary antibody. A biotinylated anti-goat IgG, anti-rabbit IgG, or anti-mouse IgG was used as the secondary antibody. Finally, the Vectastain Elite ABC kit (Vector) and tyramide conjugated to either Alexa Fluor 488 or 568 (Molecular Probes, Eugene, Oreg.) were used to visualize the antibody staining. Anti-NeuN (1:250; Chemicon International, Temecula, Calif.) and 4G8 (1:250; Signet, Dedham, Mass.) together with an anti-mouse IgG secondary antibody conjugated to Alexa Fluor 488 were used to detect NeuN and Aβ. The DNA binding dyes ToPro3 (Molecular Probes) or Hoechst 33258 (Sigma, St. Louis, Mo.) were used to visualize nuclei. Sections were imaged using either the Bio-Rad Laser Scanning Confocal system or epifluorescence (Zeiss, Thornwood, N.Y.). Representative figures were obtained from 3 APPSw mice and 3 non-transgenic controls, 3 animals per treatment for hippocampal slices, or from 4 goat IgG and 4 anti-TTR antibody infused mice.
# Following treatment with 50 μM Aβ or reverse Aβ for 24 hours, hippocampal slice cultures were fixed with a mixture of 2% PFA/2.5% glutaraldehyde in 0.1 M Sorensons phosphate buffer (pH 7.4) for 1 hour and then post fixed for 1 hour in 2% osmium tetroxide in the same buffer. The slices were then dehydrated in an ethanol series and embedded in Epon epoxy resin. Ultrathin sections were cut on a Reichert-Jung microtome, placed on copper grids, and stained with routine concentrations of uranyl acetate and lead citrate. Micrographs were taken with a Philips CM120 electron microscope. […]
# tau [2] = assay: Tau phosphorylation in human cortical slices (AT8, phospho-tau(Thr231), electron microscopy); assay type: cell-based
# Experimental: β-amyloid1-42 and reverse Aβ (Aβ42-1) were obtained from BACHEM (Torrance, Calif.). These peptides were dissolved in 0.1% NH3OH at 222 μM. For treatments, Aβ or reverse Aβ was aggregated at 50 μM in Neurobasal media with B-27 supplement and 0.5 mM glutamine at 37° C. for 24 hours. […] Human TTR (Calbiochem) was added to slices together with the Aβ treatment at final concentrations of 0.03, 0.3, and 3 μM TTR. sAPPα was obtained from Sigma (St. Louis, Mo.). Unless otherwise stated, all sAPPα treatments were performed at 1 nM 48 hours prior to the addition of Aβ. The 10 amino acid fragment of the carboxyl-terminal region of sAPPα (592-601 of APP695; SEVKMDAEFR was added according to the same protocol for sAPPα. Because a variable amount of tissue was obtained from each patient, not all treatments were performed on all patients.
# Slices were fixed in 4% PFA for 20 minutes, incubated in 30% sucrose in phosphate buffered saline overnight, and frozen in OCT embedding medium. Frozen sections with a width of 10 μm were taken through each slice. Phosphorylated tau was detected with the monoclonal AT8 antibody (1:200; Research Diagnostics, Flanders, N.J.) and anti-phospho-tau(Thr231) (1:500; Calbiochem, San Diego, Calif.). As a control, pre-immune rabbit or mouse IgG (Vector Laboratories, Burlingame, Calif.) was used in place of the primary antibody. A biotinylated anti-rabbit IgG or anti-mouse IgG was used as the secondary antibody. The Vectastain Elite ABC kit (Vector) and tyramide conjugated to either Alexa Fluor 488 or 568 (Molecular Probes, Eugene, Oreg.) were used to visualize the antibody staining. Anti-NeuN (1:250; Chemicon International, Temecula, Calif.) together with an anti-mouse IgG secondary antibody conjugated to Alexa Fluor 647 was used to detect the neuronal marker NeuN. Sections were imaged using either the Bio-Rad Laser Scanning Confocal system or epifluorescence (Zeiss, Thornwood, N.Y.).
substance,measurement,setting,value
β-amyloid1-42 [Aβ],DNA strand breaks as indicated by TUNEL,hippocampal slices,resulted in DNA strand breaks
same,Percent of neurons with chromatin condensation,hippocampal slices; FIG. 1,significant increase
same,AT8 (phosphorylated tau) staining of neurons in hippocampal neuronal fields,tau [1]; 25 μM or 50 μM,many neurons within the hippocampal neuronal fields were AT8 positive
same,Phospho-tau(Thr-231) staining of neurons,tau [1]; 25 μM or 50 μM Aβ,several neurons stained positively for phospho-tau(Thr-231)
same,"Levels of phosphorylated tau, immunoblot for phospho-tau(Thr-231)",tau [1]; 50 μM,increased the levels of phosphorylated tau
same,"Filaments within the cytoplasm of neurons, electron microscopy","tau [1]; 50 μM Aβ, 24 hours","presence of long, straight filaments"
same,AT8 positive cells,tau [2]; 50 μM Aβ,several AT8 positive cells
same,Somatic phospho-tau(Thr231) in NeuN positive neurons,tau [2]; 50 μM Aβ,several NeuN positive neurons with high levels of somatic phospho-tau(Thr231)
same,"Tangle-like structures, electron microscopy",tau [2]; 50 μM Aβ for 1 week,small number of neurons with tangle-like structures
